Tests used:
[1] = tested on: model of ischemia/reperfusion in the CD rat; test: Rat model of ischemia/reperfusion, cardiovascular monitoring (blood pressure, heart rate; Phase B); assay type: in vivo
Protocol: The animals in Phase B were monitored for selected cardiovascular endpoints from at least 15 minutes prior to acute myocardial infarction until at approximately 1 hour post reperfusion. Blood samples for the evaluation of Troponin I were collected from all surviving Phase B animals prior to coronary artery occlusion and at termination. At study termination, the Phase B animals were submitted to necropsy for limited necropsy examinations and infarct analysis.
In Phase B, Compound #6 was administered once on Day 0 via intravenous infusion at dose levels of 0.2 and 2 mg/kg. The doses were administered at a dose volume of 1 mL/kg (0.05 [2 mg/kg] or 0.033 [0.2 mg/kg] mL/kg/minute). Two control groups received the vehicle (saline) or the vehicle for Compound #6 (10% (w/v) 2-hydroxypropyl-beta-cyclodextrin and 100 mM sodium chloride in deionized water) in the same manner as the 2 mg/kg treated group. The vehicles and 2 mg/kg Compound #6 were administered intravenously via a slow infusion starting 3 to 14 minutes prior to reperfusion and continuing for 20 minutes to 20 minutes and 32 seconds, which was approximately 6 to 17 minutes after reperfusion (depending on the infusion start time). The 0.2 mg/kg Compound #6 was administered intravenously via a slow infusion starting 10 minutes prior to reperfusion and continuing for 30 minutes to 30 minutes and 30 seconds, which was approximately 20 minutes after reperfusion. The positive control article, Erythropoietin, was administered at 5000 IU/kg via a bolus intravenous injection. The positive control article dose was administered at a dose volume of 2.5 mL/kg. The positive control was administered via a 3 to 60 second injection at 5 minutes prior to reperfusion.
In Phase B, animals were anesthetized for monitoring of selected cardiovascular parameters. For experimentation, the blood pressure catheter implanted in the carotid artery was attached to an external transducer and data acquisition was started. Blood pressure (systolic, diastolic, and mean arterial) and heart rate (derived from blood pressure) were monitored from at least 15 minutes prior to acute myocardial infarction (AMI) until at least 1 hour after reperfusion. Individual animal cardiovascular data tables are not reported but are maintained in the study file.

[2] = tested on: neonate rat cardiomyocyte cells; test: Hypoxia in neonatal rat cardiomyocyte cultures, propidium iodide (PI) staining; assay type: cell-based; settings: after 3.5 hours of reoxygenation
Protocol: Rat hearts (1-2 days old) were sterilely removed and bathed three times in Ca^2+- and Mg^2+-free PBS to remove excess blood cells. The hearts were minced to small fragments and then agitated in a proteolytic enzyme-RDB solution prepared from a fig tree extract as described previously (Brik et al., 1990; Shneyvays et al., 2001). The RDB was diluted 1:200 in PBS at 25° C. for a few cycles of 10 min each. The supernatant suspension containing dissociated cells, to which medium containing 10% horse serum was added, was centrifuged at 500 g for 5 min. After centrifugation, the supernatant phase was discarded, and cells were resuspended in Dulbecco's modified Eagle medium supplemented with 10% heat-inactivated horse serum and 0.5% chick embryo extract. […]
Cultured cardiomyocytes were incubated with propidium iodide (5 μg/ml) (Molecular Probes, Eugene, Oreg.) in PBS for 30 min at 37° C., and propidium iodide (PI) staining was performed by incubating the cells with PI (5 μg/ml) (Molecular Probes, Eugene, Oreg.) in PBS for 30 min at 37° C. in order to differentiate between dead and survived cells following hypoxia (PI-fluorescent stain only nucleus of damaged cardiomyocytes). Thereafter, cells were bathed with PBS twice, and the cell fluorescence was measured through excitation at 485 nm and emission at 635 nm. […]

Cc1ccc(CN(CCN(Cc2ccc(C)cn2)Cc2ccc(C)cn2)Cc2ccc(C)cn2)nc1 [Compound #6]
mean arterial pressures after reperfusion ([1]; 0.2 mg/kg, within 5-10 minutes of reperfusion): increased
time at which blood pressure reached peak levels post reperfusion ([1]; 2 mg/kg, approximately 5 minutes following completion of the infusion): approximately 20 minutes
heart rate ([1]; 0.2 and 2.0 mg/kg): unaffected
blood pressures during infusion ([1]; both dose levels (0.2 and 2.0 mg/kg), returned to levels comparable to vehicle animals after infusion): slightly elevated
protection by PI staining, 100 nM versus other concentrations of the same compound ([2]; 100 nM): improve protection vs. other #6 concentrations
protection from hypoxic injury by PI nuclei staining compared with 1 μM TPEN, FIG. 1B ([2]; all concentrations 1 μM, 300 nM, 100 nM and 30 nM): better protection than 1 μM of TPEN

From patent publication US20140228407A1, “TETRA-PYRIDINE COMPOUNDS AND COMPOSITION FOR PROTECTING CELLS, TISSUES AND ORGANS AGAINST ISCHEMIA-REPERFUSION INJURY” (YISSUM RESEARCH DEVELOPMENT COMPANY OF THE HEBREW …, priority 2011, published 2014)
